Results on 8 molecules are retold here after patent publication US11236047B2 (ASTEX THERAPEUTICS LIMITED, priority 2017, dated 2022).

Like-named read-outs stand apart in the source and are kept apart here.

This experiment relates to SJSA-1 cells. Briefly: Protocol B: SJSA-1 CellTiter-Glo luminescent cell viability assay. (ATP-based viability assays read luminescence as a measure of living cells.)
[1] abbreviates: Homo sapiens, SJSA-1, read-out: SJSA1 IC50 (μM) (Protocol B), SJSA-1, Protocol B.
The mark [2] stands for this setting: read-out: SJSA1 IC50 (μM) (Protocol B), SJSA-1, Protocol B.

Take `Cn1cc(C(C)(O)c2cc(F)c3c(c2)C(=O)N(Cc2ccc(F)cn2)[C@@]3(OCC2(C(N)=O)CC2)c2ccc(Cl)cc2)cn1` (stereo partly drawn) [Example 209, 1-({[(1R)-1-(4-chlorophenyl)-7-fluoro-2-[(5-fluoropyridin-2-yl)methyl]-5-[1-hydroxy-1-(1-methyl-1H-pyrazol-4-yl)ethyl]-3-oxo-2,3-dihydro-1H-isoindol-1-yl]oxy}methyl)cyclopropane-1-carboxamide]: under setting [1], the IC50 (as a rule, the point on the concentration scale where inhibition reaches its midpoint) is 0.45 µM.
As for `Cn1cc(C(C)(O)c2cc(F)c3c(c2)C(=O)N(Cc2ccc(C#N)cn2)[C@@]3(OCC2(C#N)CC2)c2ccc(Cl)cc2)cn1` (stereo partly drawn) [Example 211, 6-{[(1R)-1-(4-chlorophenyl)-1-[(1-cyanocyclopropyl)methoxy]-7-fluoro-5-[1-hydroxy-1-(1-methyl-1H-pyrazol-4-yl)ethyl]-3-oxo-2,3-dihydro-1H-isoindol-2-yl]methyl}pyridine-3-carbonitrile], under setting [1], the 50% inhibitory concentration (IC50) was 0.36 µM.
With `Cn1cc(C(C)(O)c2cc(F)c3c(c2)C(=O)N(Cc2ccc(Cl)cn2)[C@@]3(OCCO)c2ccc(Cl)cc2)cn1` (stereo partly drawn) [Example 213, (3R)-3-(4-chlorophenyl)-2-[(5-chloropyridin-2-yl)methyl]-4-fluoro-6-[1-hydroxy-1-(1-methyl-1H-pyrazol-4-yl)ethyl]-3-(2-hydroxyethoxy)-2,3-dihydro-1H-isoindol-1-one], under setting [1], the IC50 was determined as 0.25 µM.
The same measure, in the same setting: in the case of `Cn1cc(C(C)(O)c2cc(F)c3c(c2)C(=O)N(Cc2ncc(Cl)cn2)[C@@]3(OCC2(C(N)=O)CC2)c2ccc(Cl)cc2)cn1` (stereo partly drawn) [Example 214, 1-({[(1R)-1-(4-chlorophenyl)-2-[(5-chloropyrimidin-2-yl)methyl]-7-fluoro-5-[1-hydroxy-1-(1-methyl-1H-pyrazol-4-yl)ethyl]-3-oxo-2,3-dihydro-1H-isoindol-1-yl]oxy}methyl)cyclopropane-1-carboxamide] it was 0.22 µM; in that of `COc1ccc(CN2C(=O)c3cc(C(C)(O)c4cnn(C)c4)cc(F)c3[C@]2(OCC2(C(N)=O)CC2)c2ccc(Cl)cc2)cn1` (stereo partly drawn) [Example 216, 1-({[(1R)-1-(4-chlorophenyl)-7-fluoro-5-[1-hydroxy-1-(1-methyl-1H-pyrazol-4-yl)ethyl]-2-[(6-methoxypyridin-3-yl)methyl]-3-oxo-2,3-dihydro-1H-isoindol-1-yl]oxy}methyl)cyclopropane-1-carboxamide], 0.28 µM.
`COc1ccc(CN2C(=O)c3cc(C(C)(O)c4cnn(C)c4)cc(F)c3[C@]2(OCC2(CO)CC2)c2ccc(Cl)cc2)cn1` (stereo partly drawn) [Example 219, (3R)-3-(4-chlorophenyl)-4-fluoro-6-[1-hydroxy-1-(1-methyl-1H-pyrazol-4-yl)ethyl]-3-{[1-(hydroxymethyl)cyclopropyl]methoxy}-2-[(6-methoxypyridin-3-yl)methyl]-2,3-dihydro-1H-isoindol-1-one]: under setting [2], the IC50 came to 0.11 µM.
On the same count and under the same terms, in the case of `COc1ccc(CN2C(=O)c3cc(C(C)(O)c4cnn(C)c4)cc(F)c3[C@]2(OCC2(CO)CC2)c2ccc(Cl)cc2)nc1` (stereo partly drawn) [Example 224, (3R)-3-(4-chlorophenyl)-4-fluoro-6-[1-hydroxy-1-(1-methyl-1H-pyrazol-4-yl)ethyl]-3-{[1-(hydroxymethyl)cyclopropyl]methoxy}-2-[(5-methoxypyridin-2-yl)methyl]-2,3-dihydro-1H-isoindol-1-one] it was 0.12 µM.
Regarding `CC(O)(c1cc(F)c2c(c1)C(=O)N(Cc1ccc(C#N)cn1)[C@@]2(OCC1(C#N)CC1)c1ccc(Cl)cc1)C1CCOCC1` (stereo partly drawn) [Example 282, 6-{[(1R)-1-(4-chlorophenyl)-1-[(1-cyanocyclopropyl)methoxy]-7-fluoro-5-[1-hydroxy-1-(oxan-4-yl)ethyl]-3-oxo-2,3-dihydro-1H-isoindol-2-yl]methyl}pyridine-3-carbonitrile], the IC50 under setting [1] worked out at 0.061 µM.
